Earlier results, collected in patent US11896043B2, “Intestinal immune-enhancing agent, food product, and medicament” (DAICEL CORPORATION, priority 2017, dated 2024).

Test system: IgA

OC[C@H]1O[C@@H](O[C@H]2[C@H](O)[C@@H](O)[C@@H](O[C@]3(CO)O[C@H](CO)[C@@H](O)[C@@H]3O)O[C@@H]2CO)[C@H](O)[C@@H](O)[C@H]1O [lactosucrose, 4^G-β-D-galactosylsucrose]
amounts of IgA in the feces and cecal contents (2% and 5% LS added feed for 4 weeks): significantly increased
amount of IgA in the feces (after two weeks): decreased greatly
amount of IgA in the feces relative to the control group (one week after ingestion): about twice
